22 molecules from patent publication EP0241395A2, “Sweeteners derived from n-phenylguanidinoacetic and n-phenylethananamidinacetic acids, and compositions containing such sweeteners” (UNIVERSITE CLAUDE BERNARD - LYON 1, priority 1986, dated 1987) can be followed below.

Structures are written as SMILES.

The assay has as its system groupe de huit goûteurs expérimentés. Briefly: Sweetening power judged by a panel of eight experienced tasters against a sucrose reference solution. The format is in vivo. Particulars: weight basis; for Pouvoir édulcorant: Table II, relative to a 2 % sucrose solution; for pouvoir édulcorant, sur une base pondérale: approximate. The text has this:
Le pouvoir édulcorant des composés préparés dans les exemples suivants a été évalué par un groupe de huit goûteurs expérimentés. Pour cela, les composés, en solution aqueuse à des concentrations variables, sont comparés, sur le plan gustatif, à une solution témoin de saccharose à 2 % et dans certains cas à 5 % et 10 %, c'est-à-dire à des concentrations correspondant à celles utilisées lors d'un usage courant. Le pouvoir sucrant des édulcorants de synthèse varie en effet suivant la concentration de la solution de saccharose utilisée comme référence. Le pouvoir édulcorant du composé testé par rapport au saccharose correspond alors au rapport pondéral qui existe entre le composé et le saccharose à égale intensité édulcorante, c'est-à-dire quand les saveurs sucrées de la solution du composé testé et de la solution témoin de saccharose sont considérées, par une majorité de goûteurs, avoir la même intensité édulcorante.

[1] abbreviates: by comparison with a 2 % sucrose solution.
Setting [2] is: by comparison with a 5 % sucrose solution.
Where [3] appears, read: by comparison with a 10 % sucrose solution.

`C[C@H](NC(=Nc1cc(Cl)cc(Cl)c1)NCC(=O)O)C1CCCCC1` [Exemple 63, acide N-[N-(S)-l-cyclohexyléthylamino(3,5-dichlorophénylimino)méthyl]-2-aminoéthanoïque] showed a Pouvoir édulcorant of 70000. Moreover, the “pouvoir édulcorant, sur une base pondérale” value under setting [1] was ~70 000 fois celui du saccharose.
For `O=C(O)CNC(=Nc1ccccc1)NC1CCCCC1` [Exemple 42, acide N-[N-cyclohexylamino(phénylimino)méthyl]-2-aminoéthanoïque], in that order: 100 and around 100 fois celui du saccharose.
For `C[C@H](NC(=Nc1ccc(Cl)c(Cl)c1)NCC(=O)O)c1ccccc1` [Exemple 23, acide N-[N-(S) -α-méthylbenzylamino (3,4-dichlorophénylimino)méthyl]-2-aminoéthanoïque], in that order: 17000 and ~17 000 fois celui du saccharose.
Take `CC1(NC(=Nc2ccc(C#N)cc2)NCC(=O)O)CCCCC1` [Exemple 67]: the “Pouvoir édulcorant” value is reported as 100. Besides, the “pouvoir édulcorant, sur une base pondérale” value under setting [1] is listed as around 100 fois celui du saccharose.
For `CSc1cccc(N=C(NCC(=O)O)N[C@@H](C)c2ccccc2)c1` [Exemple 10, acide N-[N-(S)-a-méthylbenzylamino (3-méthylmercaptophénylimino)méthyl]-2-aminoéthanoïque], in that order: 5 500 and ~5 500 fois celui du saccharose.
The like results for `O=C(O)CNC(=C[N+](=O)[O-])Nc1cc(Cl)cc(Cl)c1` [Exemple 29, acide N-[2-nitro(3,5-dichlorophénylamino)éthényl]-2-aminoéthanoïque] were, in that order, 400 and around 400 fois celui du saccharose.
Regarding `C[C@@H](NC(=Nc1ccc(C#N)cc1)NC1CCCCCCC1)C(=O)O` [Exemple 87, acide (R)-N-[N-cyclooctylamino(4-cyanophénylimino)méthyl]-2-aminopropanoïque], the “Pouvoir édulcorant” value was 900. Moreover, the “pouvoir édulcorant, sur une base pondérale” value under setting [1] was around 900 fois celui du saccharose.
Regarding `O=C(O)CNC(=Nc1ccc([N+](=O)[O-])cc1)NCC1CCCCC1` [Exemple 62, acide N-[N-cyclohexylméthylamino(4-nitrophénylimino)méthyl]-2-aminoéthanoïque], the Pouvoir édulcorant stood at 8000. Moreover, under setting [1], the “pouvoir édulcorant, sur une base pondérale” value was ~8 000 fois celui du saccharose. Besides, the “pouvoir édulcorant, sur une base pondérale” value under setting [2] is on record as ~7 500 fois celui du saccharose. For the same molecule, the “pouvoir édulcorant, sur une base pondérale” value under setting [3] was ~4 000 fois celui du saccharose.
Consider `C[C@H](NC(=Nc1cccc(Cl)c1)NCC(=O)O)c1ccccc1` [Exemple 6, acide N-[N-(S)-α-méthylbenzylamino (3-chlorophénylimino)méthyl]-2-aminoéthanoïque], for which the Pouvoir édulcorant is 30000. Moreover, the “pouvoir édulcorant, sur une base pondérale” value under setting [1] was ~30 000 fois celui du saccharose.
The like results for `C[C@@H](NC(=Nc1ccc(C#N)cc1)NC1CCCCC1)C(=O)O` [Exemple 85, acide (R)-N-[N-cyclohexylamino (4-cyanophénylimino)méthyl]-2-aminopropanoïque] were, in that order, 100 and around 100 fois celui du saccharose.
`N#Cc1ccc(N=C(NCC(=O)O)Nc2ccccc2)cc1` [Exemple 41, acide N-[N-phénylamino(4-cyanophénylimino)méthyl]-2-aminoéthanoïque] returned a Pouvoir édulcorant of 4000. Also, the “pouvoir édulcorant, sur une base pondérale” value under setting [1] is ~4 000 fois celui du saccharose. Under setting [2], the “pouvoir édulcorant, sur une base pondérale” value is ~1 800 fois celui du saccharose. Besides, under setting [3], the “pouvoir édulcorant, sur une base pondérale” value was around 650 fois celui du saccharose.
In turn, `Cc1cc(NC(=NC2CCCCCCC2)NCC(=O)O)ccc1C#N` [Exemple 48, acide N-[N-cyclooctylamino(4-cyano-3-méthylphénylimino)méthyl]-2-aminoéthanoïque] returned a Pouvoir édulcorant of 80000. For the same molecule, under setting [1], the “pouvoir édulcorant, sur une base pondérale” value was ~80 000 fois celui du saccharose.
For `Cc1cc(N=C(NCC(=O)O)N[C@@H](C)c2ccccc2)ccc1C#N` [Exemple 22, acide N-[N-(S)-a-méthylbenzylamino (4-cyano-3-méthylphénylimino)méthyl]-2-aminoéthanoïque], in that order: 50000 and ~50 000 fois celui du saccharose.
Molecule `N#Cc1ccc(N=C(NCC(=O)O)Nc2cccc(Cl)c2)cc1` [Exemple 80, acide N-[N-(3-chlorophényl)amino(4-cyanophénylimino)méthyl]-2-aminoéthanoïque] yielded a Pouvoir édulcorant of 10000.
In turn, `Cc1ccccc1N=C(NCC(=O)O)Nc1ccc(C#N)cc1` [Exemple 64, acide N-[N-(2-méthylphényl)amino (4-cyanophénylimino)méthyl]-2-aminoéthanoïque] displayed a Pouvoir édulcorant of 5000. Also, under setting [1], the “pouvoir édulcorant, sur une base pondérale” value is listed as ~5 000 fois celui du saccharose.
The like results for `Cc1cccc(N=C(NCC(=O)O)N[C@@H](C)c2ccccc2)c1` [Exemple 4, acide N-[N (S)-α-méthylbenzylamino (3-méthylphénylimino)méthyl]-2-aminoéthanoïque] were, in that order, 12000 and ~12 000 fois celui du saccharose.
As for `CCc1cccc(N=C(NCC(=O)O)N[C@@H](C)c2ccccc2)c1` [Exemple 5, acide N-[N-(S) -α-méthylbenzylamino (3-éthylphénylimino)méthyl]-2-aminoéthanoïque], the “Pouvoir édulcorant” value is 4 500. Moreover, the “pouvoir édulcorant, sur une base pondérale” value under setting [1] is recorded as ~4 500 fois celui du saccharose.
The like results for `O=C(O)CNC(=Nc1cc(Cl)cc(Cl)c1)Nc1cc(Cl)cc(Cl)c1` [Exemple 81, acide N-[N-3,5-dichlorophénylamino (3,5-dichlorophénylimino)méthyl]-2-aminoéthanoïque] were, in that order, 1000 and ~1 000 fois celui du saccharose.
Turning to `N#Cc1ccc(N=C(NCCc2ccccc2)NCC(=O)O)cc1` [Exemple 53, acide N-[N-phényléthylamino(4-cyanophénylimino)méthyl]-2-aminoéthanoïque], the “Pouvoir édulcorant” value is 8 500. The “pouvoir édulcorant, sur une base pondérale” value under setting [1] was ~8 500 fois celui du saccharose. For the same molecule, the “pouvoir édulcorant, sur une base pondérale” value under setting [2] was ~6 100 fois celui du saccharose. The “pouvoir édulcorant, sur une base pondérale” value under setting [3] is reported as ~4 200 fois celui du saccharose.
On to `N#CC(C#N)=C(NCC(=O)O)Nc1cc(Cl)cc(Cl)c1` [Exemple 30, acide N-[2,2-dicyano(3,5-dichlorophénylamino)éthényl]-2-aminoéthanoïque], for which the “Pouvoir édulcorant” value is on record as 30.
With `O=C(O)CNC(=Nc1cc(Cl)cc(Cl)c1)NCC1CCCCC1` [Exemple 57, acide N-[N-cyclohexylméthylamino (3,5-dichlorophénylimino)méthyl]-2-aminoéthanoïque], the Pouvoir édulcorant was 35000. Also, under setting [1], the “pouvoir édulcorant, sur une base pondérale” value is recorded as ~35 000 fois celui du saccharose.
For `O=C(O)CN=C(NCC1CCCCC1)Nc1ccc(C(=O)O)cc1` [Exemple 61, acide N-[N-cyclohexylméthylamino(4-carboxyphénylimino)méthyl]-2-aminoéthanoïque], in that order: 50 and around 50 fois celui du saccharose.
